Laboratory results published in patent US8558056B2, “LysM receptor-like kinases to improve plant defense response against fungal pathogens” (The Curators of the University of Missouri, priority 2006, dated 2013).

How the values were obtained:
[1] = tested on: wild-type Col-0 gene expression (chitooligosaccharide-responsive genes, CRGs); experiment: Affymetrix ATH1 whole genome array, response to chitooctaose in wild-type plants; assay type: in vivo, Arabidopsis thaliana
Protocol: (§1) More particularly, Arabidopsis seedlings were grown hydroponically as described by Ramonell et al., 2005. Fourteen-day old seedlings were treated with chitooctaose (Sigma, St. Louis, Mo., USA) at a concentration of 1 μM or with distilled water (as a control) for 30 minutes. To test flagellin-responsive genes, 14-day old seedlings were also treated with the flagellinderived flg22 peptide (dissolved in dimethyl sulfoxide, DMSO) at a final concentration of 10 μM or with an equivalent amount of DMSO (as a control) for 30 minutes. To test other defense pathways, Arabidopsis seedlings were also treated for 24 hours with 5 mM SA, 100 μM MeJA, and 0.5 mM ACC (all obtained from Sigma, St. Louis, Mo., USA) and dissolved in 0.1% ethanol. The control plants were similarly treated with an equivalent amount of ethanol. After treatment, the seedlings were collected and frozen in liquid nitrogen for RNA isolation.
(§2) Total RNA was isolated using the Trizol Reagent according to the manufacturer's instructions (Invitrogen, Carlsbad, Calif.). The isolated RNA was further purified using Qiagen RNeasy Mini Columns according to the manufacturer's instruction (Qiagen, Valencia, Calif., USA) and treated with Turbo™ DNase (Ambion, Austin, Tex., USA). For semi-quantitative RT-PCR or quantitative 17 PCR, cDNA was synthesized using M-MLV reverse transcriptase according to the manufacturer's instructions (Promega, Madison, Wis., USA).
(§3) Gene expression profiles in the AtLysM RLK1 mutant in response to chitooctaose were studied using the Affymetrix Arabidopsis Whole Genome Array ATH1 (with ˜22000 genes), with wild-type plants as a control. […] A row represents a gene and each column represents a sample. WT-8mer=wild-type Col-0 treated with chitooctaose; WT-water=wild-type Col-0 treated with distilled water; Mu-water=the AtLysM RLK1 mutant treated with distilled water; Mu-8mer=the AtLysM RLK1 mutant treated with chitooctaose. The color bar below the cluster picture: the red color indicates the expression level of a gene is above the mean expression of the gene across all samples; the green color indicates expression lower than the mean.

[2] = tested on: selected CRGs (LjMPK3, LjWRKY22, LjWRKY33, LjWRKY53); experiment: Semi-quantitative RT-PCR of selected CRGs in Lotus japonicus Nod signal receptor mutants; assay type: in vivo; conditions: chitooctaose 1 μM, 30 minutes; wild type Gifu as comparison
Protocol: PCR reactions were conducted using Taq polymerase (Promega, Madison, Wis., USA) under the following conditions: 94° C., 3 minutes; 94° C., 30 seconds; 55° C., 30 seconds; 72° C., 1.5 minutes; 25 cycles; 72° C., 3 minutes. The corresponding CRG genes in Lotus japonicus were identified by blasting the cDNA sequences of the above Arabidopsis CRGs (and also actin-2) against the TIGR Lotus japonicus Gene Index. The closest hits were chosen and arbitrarily named after their Arabidopsis counterparts with the prefix Lj (standing for Lotus japonicus). The following primer pairs were designed to detect these genes:
LjActin-2 was used as an internal control.
LysM RLK NFR1 and NFR5 Nod signal receptors specifically recognize a lipochitin molecule with a back-bone of 4-5 units of N-acetyl-D-glucosamine. For review, see Stacey et al. 2006. […] In more details, both the wild type (Gifu) and the Nod signal receptor mutants nfr1-1 and nfr5-1 were treated with chitooctaose for 30 minutes at a concentration of 1 μM or with water (as a control). The selected CRGS were detected using semi-quantitative RT-PCR. LjActin-2 was used as an internal control.

[3] = tested on: selected CRGs (MPK3, WRKY22, WRKY29, WRKY33, WRKY53); experiment: Semi-quantitative RT-PCR of selected CRGs after chitooctaose; assay type: in vivo, Arabidopsis thaliana; conditions: chitooctaose or water for 30 minutes; mutant vs wild type
Protocol: To test whether non-leguminous LysM RLKs may be involved in the perception of chitooligosaccharides and the subsequent induction of downstream genes that have been implicated in fungal defense, T-DNA insertion mutants were obtained for all five LysM RLK genes (i.e., At1g51940, At2g23770, At2g33580, At3g01840, and At3g21630) in Arabidopsis. The gene At3g21630 (SEQ ID. No. 3) is also termed AtLYK1 or AtLysM RLK1. Homozygous mutants were then treated with a purified chitooligosaccharide (chitooctaose) and the expression levels of known CRGs, such as MPK3 (At3g45640, SEQ ID. No. 8), WRKY22 (At4g01250, SEQ ID. No. 9), WRKY29 (At4g23550, SEQ ID. No. 10), WRKY33 (At2g38470, SEQ ID. No. 11), and WRKY53 (At4g23810, SEQ ID. No. 12), were measured.
More particularly, Arabidopsis seedlings were grown hydroponically as described by Ramonell et al., 2005. […]
Total RNA was isolated using the Trizol Reagent according to the manufacturer's instructions (Invitrogen, Carlsbad, Calif.). […] For semi-quantitative RT-PCR or quantitative 17 PCR, cDNA was synthesized using M-MLV reverse transcriptase according to the manufacturer's instructions (Promega, Madison, Wis., USA). […]
Both the mutant (Mu) and wildtype (WT) plants were treated with purified chitooctaose or water (as a control) for 30 minutes and gene expression of the selected CRGs was detected using semi-quantitative RT-PCR. […]

[4] = tested on: AtLysM RLK1 mutant gene expression (chitooligosaccharide-responsive genes, CRGs); experiment: Affymetrix ATH1 whole genome array, response to chitooctaose in the AtLysM RLK1 mutant; assay type: in vivo, Arabidopsis thaliana
Protocol: as §1, §2
The AtLysM RLK1 insertion mutant (096F09) used in the current work was generated in the context of the GABI-Kat program and provided by Bernd Weisshaar (MPI for Plant Breeding Research, Cologne, Germany). See Shibuya et al., 2001. The homozygous plants were identified by genotyping using the following gene-specific primers: […]
as §3

[5] = tested on: Arabidopsis LysM RLK genes; experiment: DNA microarray (Affymetrix 24K chip) of plants sprayed with chitin; assay type: in vivo, Arabidopsis thaliana; conditions: leaves sprayed with chitin (100 μM)+0.2% Tween-20
Protocol: A total of five LysM receptor-like kinase genes were identified in Arabidopsis from the studies described in Example 1. The Genbank numbers of these five genes are AtLYK1 (GenBank accession #At3g21630), AtLYK2 (GenBank accession # At3g01840), AtLYK3 (GenBank accession #At1g51940), AtLYK4 (GenBank accession # At2g23770), AtLYK5 (GenBank accession #At2g33580), and, which are designated as SEQ ID. Nos. 3-7, respectively. A DNA microarray experiment was performed by treating Arabidopsis plants with chitin. Leaves were treated by spraying with chitin (100 μM)+0.2% Tween-20. The Affymetrix 24K Arabidopsis genome chip was utilized according to the manufacturer's instructions for this test. […] The data implicate these genes in plant chitin response.

transcription factors = experiment: qRT-PCR of transcription factors after chitin treatment; parameters: species or system Arabidopsis thaliana; conditions: in vivo
Protocol: Based on the genome-wide gene expression studies using microarrays, quantitative reverse transcriptase-polymerase chain reaction (qRT-PCR) was conducted to identify over 120 different transcription factors in Arabidopsis thaliana whose expression is enhanced by chitin treatment. Many of these transcription factors are known to be involved in fungal pathogen response. […] Each of these transcription factors is a potential target for genetic manipulation in order to enhance disease resistance. The results of this study are described in greater details in Libault et al., 2007, which is hereby expressly incorporated by reference.

soybean LysM RLK genes = experiment: Expression analysis of GmLysM receptor-like kinases in chitin-treated leaves; assay type: in vivo; conditions: leaves sprayed with chitin (100 μM)+0.2% Tween-20
Protocol: Soybean genotypes used for mapping of soybean QTLs for white mold resistance included Corsoy 79 and Dassel. […] Finally, as was the case with Arabidopsis, some of the soybean LysM RLK genes are induced upon treatment of soybean with chitin, as confirmed by the results shown in FIG. 20. Leaves were treated by spraying with chitin (100 μM)+0.2% Tween-20.

AtLysM RLK1 gene = experiment: RT-PCR of AtLysM RLK1 gene expression after elicitor treatment; assay type: in vivo, Arabidopsis thaliana; conditions: seedlings, chitooctaose 1 μM, 30 minutes
Protocol: as §1
These two primers were also used to detect the expression of the AtLysM RLK1 gene via RT-PCR. The other primers used to detect the transcript 5′ of the insertion site were as follows:
The expression pattern of the AtLysM RLK1 gene was also studied. […]

[6] = tested on: Pseudomonas syringae pv. tomato DC3000; experiment: Pretreatment before inoculation with Pseudomonas syringae pv. tomato DC3000 (bacterial growth); assay type: in vivo, Arabidopsis thaliana
From the text: (§4) To test the specificity of AtLysM RLK1 in fungal disease resistance, the response of the mutant to the bacterial pathogen Pseudomonas syringae pv. Tomato DC3000 was also examined. […] WT=wild-type Col-0; Mu=the AtLysM RLK1 mutant. CSC=crab shell chitin, 8mer=chitooctaose, and water=distilled water. Empty columns=WT Col-0 and solid black columns=the AtLysM RLK1 mutant. Asterisks indicate statistically significant differences between the mutant and wild-type plants (P<0.05). Error bars=standard error. Each experiment was repeated at least twice with similar results.

Alternaria brassicicola = experiment: Pretreatment before inoculation with Alternaria brassicicola (lesion size, spore production); assay type: in vivo, Arabidopsis thaliana
From the text: The susceptibility appeared to be less than that observed in NahG plants, which express salicylate hydrolase, preventing the accumulation of salicylic acid, and are therefore very susceptible to the fungal pathogen (FIG. 13A). […] Arrows indicate sites where conidiophores are forming. All photographs were taken six days after inoculation. Bar=0.1 mm. 4-week-old plants were also inoculated with the necrotrophic fungus Alternaria brassicicola. Three days after inoculation, the mutant developed slightly bigger lesions than the wild-type plants, as measured by average diameter of the lesions (FIGS. 13C and 13D). In agreement with this, the mutant plants also produced more spores per lesion than the wild-type plants (FIG. 13E).
as §4

[7] = pretreatment of AtLysM RLK1 mutant plants
[8] = pretreatment of wild-type plants

`CC(=O)N[C@H]1[C@H](O[C@H]2[C@H](O)[C@@H](NC(C)=O)[C@H](O[C@H]3[C@H](O)[C@@H](NC(C)=O)[C@H](O[C@H]4[C@H](O)[C@@H](NC(C)=O)C(O)O[C@@H]4CO)O[C@@H]3CO)O[C@@H]2CO)O[C@H](CO)[C@@H](O[C@@H]2O[C@H](CO)[C@@H](O[C@@H]3O[C@H](CO)[C@@H](O[C@@H]4O[C@H](CO)[C@@H](O[C@@H]5O[C@H](CO)[C@@H](O)[C@H](O)[C@H]5NC(C)=O)[C@H](O)[C@H]4NC(C)=O)[C@H](O)[C@H]3NC(C)=O)[C@H](O)[C@H]2NC(C)=O)[C@@H]1O` (some centres unmarked) [chitooctaose] was tested, and the “number of down-regulated genes in wild-type plants” value ([1]; 1.5 fold, P<0.05) was 227 genes, the “number of up-regulated genes in wild-type plants” value ([1]; 1.5 fold, P<0.05) was 663 genes and the “number of genes that responded more than 1.5 fold (P<0.05) to chitooctaose elicitation” value ([1]; in both the wild-type and mutant plants, 30 minutes after the treatment) was 909 genes. For the same compound, the “number of genes with a change in transcript levels in wild-type plants” value ([1]; out of the 909 genes, 1.5 fold, P<0.05) was 890 genes, the “induction of the selected CRGs in L. japonicus nfr1-1 and nfr5-1 mutants” value [2] was “did not block the induction” and the “induction of the selected CRGs in the AtLysM RLK1 insertion mutant” value [3] was “almost completely blocked the induction”. The “number of down-regulated genes in the mutant” value ([4]; AtLysM RLK1 mutant) was 17 genes, the “number of up-regulated genes in the mutant” value ([4]; AtLysM RLK1 mutant) was 16 genes and the “number of genes responsive in the mutant” value ([4]; out of 909, AtLysM RLK1 mutant) was 33 genes.
With chitin the “increase in transcription of At2g23770” value [5] was 2 fold, the “increase in transcription of At2g33580” value [5] was 13 fold and the “increase in transcription of At3g21630” value [5] was 2 fold. The “number of transcription factors whose expression is enhanced by chitin treatment” value (transcription factors) was “over 120 transcription factors” and the “induction of soybean LysM RLK genes” value (soybean LysM RLK genes) was “induced”.
In the case of chitooligosaccharides, the “induction of the AtLysM RLK1 gene” value (AtLysM RLK1 gene) is reported as “induced”, the “resistance after pretreatment, P. syringae pv. tomato DC3000” value [6, 7] is reported as “did not enhance resistance” and the “growth of the bacterial pathogen P. syringae pv. tomato DC3000” value [6, 8] is reported as “inhibited the growth”. The “resistance after pretreatment, A. brassicicola” value (Alternaria brassicicola; [7]) was “did not enhance resistance”, the “disease symptoms (lesion size and spore production) after A. brassicicola inoculation” value (Alternaria brassicicola; [8]) was “reduced disease symptoms” and the “share of CRGs whose regulation is blocked by the AtLysM RLK1 mutation” value ([4]; AtLysM RLK1 mutant vs wild type) was ~98%.
